Experimental data from patent US5158958A, “Imidazo[4,5-b]quinolinyl oxy alkyl sulfonyl piperidine derivatives” (Bristol-Myers Squibb Company, priority 1992, dated 1992).
Where a name gives a salt, the structure may show the parent alone.

test: Aqueous solubility; assay type: physicochemical; conditions: water, compounds prepared as dihydrochloride salts

| Compound | solubility |
| --- | --- |
| CC(C)CN1CCC(S(=O)(=O)CCCOc2ccc3[nH]c4nc(O)nc-4cc3c2)CC1 [Cmpd 17f, 4[[3-[2,3-Dihydro-2-oxo-1H-imidazo[4.5-b]quinolin-7yloxy]propyl]sulfonyll-1-(2-methylpropyl)piperidinedihydrochloride] | > 10000 µg/mL |
| O=S(=O)(CCCOc1ccc2[nH]c3nc(O)nc-3cc2c1)C1CCN(CCC2CCCCC2)CC1 [Cmpd 17g, 1-(2-Cyclohexylethyl)-4-[[(3-[(2,3-dihydro-2-oxo-1H-imidazo[4,5-b]quinolin-7-yloxy]propyl]sulfonyl]piperidinedihydrochloride] | < 5000 µg/mL |
| CCC(CC)CN1CCC(S(=O)(=O)CCCCOc2ccc3[nH]c4nc(O)nc-4cc3c2)CC1 [l8e, 4[[3-[2,3-Dihydro-2-oxo-1H-imidazo[4.5-b]qouinolin-7-yloxy]butylsulfonyl]-1-(2-ethylbut-1-yl)piperidinedihydrochloride] | ~5000 µg/mL |
| O=S(=O)(CCCCOc1ccc2[nH]c3nc(O)nc-3cc2c1)C1CCN(Cc2ccc(F)cc2)CC1 [l8c, dihydrochloride] | ~2000 µg/mL |
| O=S(=O)(CCCOc1ccc2[nH]c3nc(O)nc-3cc2c1)C1CCN(Cc2cccc(C(F)(F)F)c2)CC1 [Cmpd 17i, 4-[3-[2,3-Dihydro-2-oxo1H-imidazo[4,5-b]quinolin-7-yl-oxy]propyl]sulfony]1-[(3-trifluoromethylhenvlmethyphenylmethyl]piperidine dihydrochloride] | < 5000 µg/mL |
| O=S(=O)(CCCOc1ccc2[nH]c3nc(O)nc-3cc2c1)C1CCN(CC2CCCCO2)CC1 (stereo not drawn) [Cmpd 17k, 4[[2,3-Dihydro-2-oxo-1H-imidazo[4,5-b]quinolin-7-yl-pxy]propyl]sulfonyl]-1-[(tetrahydro-2H-pyran-2-yl)piperidine dihydrochloride] | > 10000 µg/mL |
| O=S(=O)(CCCOc1ccc2[nH]c3nc(O)nc-3cc2c1)C1CCNCC1 [Cmpd 17a, 4-[[3-[[(2-,3-Dihydro-2-oxo-1H-imidazo[4,5-b]guinolin7-yl)oxy]propylsulfonyl]piperidinedihydrochloride] | > 10000 µg/mL |
| O=S(=O)(CCCCOc1ccc2[nH]c3nc(O)nc-3cc2c1)C1CCN(Cc2ccccc2)CC1 [Cmpd 18b, 4[[3-[2,3-Dihydro-2-oxo-1H-imidazo[4,5-b]quinolin-7-yloxyl]butylsulfonyl]-1-(phenylmethyl)piperidinedihydrochloride] | ~5000 µg/mL |
| CCC(CC)CN1CCC(S(=O)(=O)CCCOc2ccc3nc4[nH]c(=O)[nH]c4cc3c2)CC1.Cl.Cl [Cmpd 17e, 4-[[3-[2,3-Dihydro-2-oxo-1H-imidazo[4,5-b]quinolin-7yl-oxy]propyl]sulfonyl]1-(2-ethylbut-1yl)piperidine dihydrochloride] | < 10000 µg/mL |
| O=S(=O)(CCCOc1ccc2[nH]c3nc(O)nc-3cc2c1)C1CCN(Cc2ccc(F)cc2)CC1 [Cmpd 17c, 4-[[3-[2,3-Dihydro-2-oxo1H-imidazo[4,5-b]quinolin-7piperidinedihydrochloride] | > 10000 µg/mL |
| O=S(=O)(CCCCOc1ccc2[nH]c3nc(O)nc-3cc2c1)C1CCN(CC2CCCCC2)CC1 [Cmpd 18d, 1-(Cyclohexylmethyl)-4-[[3-[2,3-Dihydro-2-oxo-1H-imidaxo [4,5-b]quinolin-7-yloxy]butylsulfonylpiperidinedihydrochloride] | ~2000 µg/mL |
| O=S(=O)(CCCOc1ccc2[nH]c3nc(O)nc-3cc2c1)C1CCN(CCc2ccccc2)CC1 [Cmpd 17h, 4-[[3-[2,3-Dihydro-2-oxo-1H-imidazo[4,5-b]quinolin-7-yl-oxy]propyl]sulfonyl]-b 1-(2-phenylethyl)piperidine dihydrochloride] | < 5000 µg/mL |
| O=S(=O)(CCCCOc1ccc2[nH]c3nc(O)nc-3cc2c1)C1CCNCC1 [Cmpd 18a, 4-[[2,3-Dihydro-2-oxo-1H-imidazo[4,5-b]quinolin-7-yloxy]butyl]sulfonyl]piperidine dihydrochloride] | > 10000 µg/mL |
| O=S(=O)(CCCOc1ccc2[nH]c3nc(O)nc-3cc2c1)C1CCN(Cc2ccccc2)CC1 [Cmpd 17b, 4-[[3-[2,3-Dihydro-2-oxy-1H-imidazo[4,5-b]quinolin-7-yloxy]propyl]sulfonyl]-1-(phenylmethyl)piperidine dihydrochloride] | > 10000 µg/mL |
| O=S(=O)(CCCOc1ccc2[nH]c3nc(O)nc-3cc2c1)C1CCN(CC2CCCCC2)CC1 [Cmpd 17d, 4-[[3-[2,3-Dihydro-2-oxo-1H-imidazo[4,5-b]quinolin-7-yl-oxy]propyl]sulfonyl]-(cyclohexylmethyl)piperidine dihydrochloride] | < 10000 µg/mL |
